Paper PMC9014651 (Bioorganic Chemistry, 2022)
Where a SMILES comes first, the peptide text is derived from it.

Assays:
[1] = molecular target: T1, SARS-CoV-2 M^pro (Severe acute respiratory syndrome coronavirus 2, UniProt P0DTD1); assay: FRET percent inhibition screening of M^pro inhibitors; format: biochemical; conditions: control experiments
[2] = molecular target: T1, SARS-CoV-2 M^pro; assay: IC50 measurement on M^pro; format: biochemical
[3] = tested on: M^pro; conditions: cited from earlier work

O=C(CC(c1ccccc1)c1ccccc1)NO [N-hydroxy-3,3-diphenylpropanamide]
Inhibitory effect on M^pro (control experiment) [1]: no inhibitory effect

Cc1ccccc1NC(=S)N/N=C/c1ccccc1O [2n, (E)-1-(2-hydroxybenzylidene)-4-o-tolylthiosemicarbazide]
IC50 [2]: 20.7 µM

O=c1c2ccccc2[se]n1-c1ccccc1 [Ebselen]
Effect of binding on M^pro stability (thermal shift) [3]: destabilization | Reversibility of M^pro inhibition [3]: irreversibly inhibit

O=c1c2ccccc2sn1-c1ccccc1 [Ebsulfur]
Reversibility of M^pro inhibition [3]: irreversibly inhibit

CCCC(NC(=O)C(CC(C)C)NC(=O)OCc1ccccc1)C(=O)C(=O)NCc1ccccn1 (stereo not shown) [XII]
IC50 value range (M^pro) [3]: single-digit to sub-micromolar

CCN(CC)C(=S)SSC(=S)N(CC)CC [disulfiram]
Effect of binding on M^pro stability (thermal shift) [3]: destabilization

CC(C)(C)NC(=O)N[C@H](C(=O)N1C[C@H]2[C@@H]([C@H]1C(=O)NC(CC1CCC1)C(=O)C(N)=O)C2(C)C)C(C)(C)C (stereo partly shown) [boceprevir]
IC50 value range (M^pro) [3]: single-digit to sub-micromolar

CSCC[C@@H](C=O)NC(=O)[C@H](CC(C)C)NC(=O)[C@H](CC(C)C)NC(C)=O [calpain inhibitors II] (Ac-Leu-Leu-Met-aldehyde)
IC50 value range (M^pro) [3]: single-digit to sub-micromolar

CC(C)C[C@H](NC(=O)OCc1ccccc1)C(=O)N[C@@H](CC1CCNC1=O)C(O)S(=O)(=O)[O-].[Na+] (stereo partly shown) [GC-376]
IC50 value range (M^pro) [3]: single-digit to sub-micromolar
